Results reported in patent US7214668B2, “Phosphonic acid based prodrugs of PMEA and its analogues” (Metabasis Therapeutics, Inc., priority 2002, dated 2007).
Several values for one entry are separate records, joined by “and”; a condition that tells them apart may be missing. Equal values may be shown once. Read-outs that look alike come from different tables or passages of the source.

Key:
human liver microsomes = assay: In vitro activation of enantiomers in human liver microsomes (glutathione by-product capture); format: in vitro ADME; details: 2 mg/mL human liver microsomes, glutathione adduct of by-product quantified
Method: The two enantiomers were compared for activation in human liver microsomes.
Human liver microsomes were purchased from In Vitro Technologies (IVT1032). […] The reactions were initiated by addition of NADPH following a 2-minute preincubation. Reactions were quenched with 60% methanol at 0, 2.5, 5, and 7.5 minutes. L-Glutamyl-L-(S-(3-oxo-3-(3-chlorophenyl)propyl)cysteinylglycine, a glutathione adduct of the by-product of prodrug activation, 3-Cl-phenyl vinyl ketone, was quantified following extraction of the reaction with 1.5 volumes of methanol. The extracted samples were centrifuged at 14,000 rpm in an Eppendorf microfuge and the supernatant analyzed by HPLC for L-Glutamyl-L-(S-(3-oxo-3-(3-chlorophenyl)propyl)cysteinylglycine content. Spiked L-Glutamyl-L-(S-(3-oxo-3-(3-chlorophenyl)propyl)cysteinylglycine (lot 20000127) standards (1–30 μM) were prepared in 2 mg/ml microsomes under reaction conditions and then quenched and processed in an identical fashion to unknown samples. For HPLC analysis, the loading mobile phase buffer (Buffer A) consisted of a 9:1 ratio (v/v) of 20 mM potassium phosphate, pH 6.2 and acetonitrile. Extract (100 uL) was injected onto a Beckman Ultrasphere ODS column (4.6×250 […], part#235329). […] The elution of L-Glutamyl-L-(S-(3-oxo-3-(3-chlorophenyl)propyl)cysteinylglycine (retention time 10.4 minutes) was monitored at 245 nm.

[1] = Pharmacokinetics and oral bioavailability in beagle dog; format: in vivo
Method: Following an i.v. bolus and oral administration of 8 and 40 mg/kg (prodrug equivalent dose), respectively, of Compound 4 in PEG-400 to male beagle dogs (n=4), blood samples were collected at the following times: 5, 15, 30, 45 min and 1, 2, 4, 6, 8, 12, and 24 hrs post each dosing occasion. In addition, urine was collected over the following intervals: 0–12, 12–24, 24–48, and 48–72 hrs. Intact Compound 4 and PMEA were measured in the plasma and urine samples using an LC-MS/MS method. PK parameters were determined by non-compartmental analysis.

[2] = tested on: freshly isolated rat hepatocytes; details: 250 μM prodrug
Method: PMEA prodrugs were tested.
Hepatocytes were prepared from fed Sprague-Dawley rats (250–300 g) according to the procedure of Berry and Friend (Berry, M. N. Friend, D. S., J. Cell Biol. 43:506–520 (1969)) as modified by Groen (Groen, A. K. et al., Eur. J. Biochem 122:87–93 (1982)). Hepatocytes (60 mg/ml wet weight, >85% trypan blue viability) were incubated in 2 ml of krebs-bicarbonate buffer containing 20 mM glucose, and 1 mg/ml BSA for 4 hours in the presence of 250 μM PMEA prodrugs (from 25 mM stock solutions of prodrugs in methanol). At appropriate time points throughout the incubation (0, 1, 2, 4 hours), 400-μl aliquots of the cell suspension were taken and centrifuged through a silicon/mineral oil layer into 10% perchloric acid to extract intracellular nucleotides. The acidic cell extracts were neutralized with 0.3 volumes of 3M KOH/3M […] before evaluating PMEApp levels by ion exchange HPLC (Hewlett Packard 1050) using a Whatman Partisphere SAX (5 μm, 4.6×125 mm) column. Samples were loaded onto the column in 0.3M-ammonium phosphate buffer pH 3.5 and eluted from the column with a gradient to 0.8 M ammonium phosphate pH 3.5.

[3] = 40 mg/kg p.o. vs 8 mg/kg i.v., dog

In the case of Nc1ncnc2c1ncn2CCOCP1(=O)OCCC(c2cccc(Cl)c2)O1 (racemic) [Compound 4], the “Activation (25 μM)” value (human liver microsomes; 25 μM) is reported as 38 pmol/mg/min, the “Activation (250 μM)” value (human liver microsomes; 250 μM) is reported as 283 pmol/mg/min and the “Tolerability (signs of ill health or mortality)” value ([1]; 8 mg/kg i.v. bolus and 40 mg/kg oral in PEG-400, male beagle dogs) is reported as “well tolerated”. The “Mean residence time (MRTiv)” value ([1]; 8 mg/kg i.v. bolus, dog) was 1.0 h, the Plasma clearance ([1]; 8 mg/kg i.v. bolus, dog) was 29.5 mL/min/kg and the “Volume of distribution (Vss)” value ([1]; 8 mg/kg i.v. bolus, dog) was 1.70 L/kg. The “Mean terminal elimination half-life t1/2 of intact prodrug, i.v.” value ([1]; 8 mg/kg i.v. bolus, dog plasma) was 0.8 h, the “i.v. dose excreted in the urine as PMEA” value ([1]; 8 mg/kg i.v., dog) was 2% and the “i.v. dose excreted in the urine as intact Compound 4” value ([1]; 8 mg/kg i.v., dog) was “approximately 30%”. The “OBAV based on dose normalized oral-to-i.v. AUC ratios” value [1, 3] was 112%, the “OBAV based on urinary excretion of Compound 4” value [1, 3] was 82% and the “Half-life of PMEA after oral dosing of the prodrug” value ([1]; 40 mg/kg p.o., dog) was 5.4 h. The “Mean peak plasma concentration (Cmax) of intact prodrug, oral” value ([1]; 40 mg/kg p.o., dog) was 10200 ng/mL, the “Mean plasma Cmax of PMEA following oral administration” value ([1]; 40 mg/kg p.o., dog) was 240 ng/mL and the “Terminal t1/2 after p.o. dosing” value ([1]; 40 mg/kg p.o., dog) was 1.0 h. For the same compound, the “Tmax of PMEA following oral administration” value ([1]; 40 mg/kg p.o., dog) was 1.4 h, the “Tmax of intact prodrug, oral” value ([1]; 40 mg/kg p.o., dog) was 0.8 h and 0.81 h and the “p.o. dose excreted in the urine as PMEA” value ([1]; 40 mg/kg p.o., dog) was 1.7%. The “p.o. dose excreted in the urine as intact prodrug” value ([1]; 40 mg/kg p.o., dog) was 40%, the Cmax ([1]; 40 mg/kg p.o., dog, read-out: Mean peak plasma concentration (Cmax) of intact prodrug, oral) was ~24 µM and the Cmax ([1]; 40 mg/kg p.o., dog, read-out: Mean plasma Cmax of PMEA following oral administration) was ~0.88 µM. For the same compound, the “% F (orally bioavailable)” value ([1]; beagle dog, conclusion) was ~100%, the “Fold reduction of systemic PMEA exposure (dose-normalized plasma AUC) versus bis POM PMEA literature” value ([1]; dog) was 18.8 fold and the “PMEA AUC (dose-normalized plasma)” value ([1]; dog, after Compound 4) was 0.58. The “Rat Hepatocytes, PMEApp formation, 250 μM, AUC 0–4 h” value [2] was 109.3 nmol·h/g.
